From patent US11360010B1, “Methods and device for controlled cell stretch and imaging” (The Regents of the University of Colorado, a body, priority 2019, dated 2022)
Entries after “also recorded” stand apart in the source; their conditions may differ.

Columns and labels:
[1] = tested on: mouse embryonic skin fibroblasts (MSFs); assay: Live imaging of nuclear area and chromatin condensation (H2b-eGFP) during cyclic stretch routines; type: cell-based; details: for change in nuclear area / chromatin condensation (H2b histogram kurtosis and skewness): BAPTA 50 μM, KN-62 10 μM, cytochalasin D 2 μM
Method: (§1) Transgenic mice harboring a fluorescence tag at the H2b histone—B6.Cg-Tg (HIST1H2BB/EGFP) 1 Pa/J, Stock No: 006069—were obtained from Jackson Laboratory (Bar Harbor, Me.). All animal procedures were performed following Institutional Animal Care & Use Committee approval. Skin from embryonic mice was harvested 18.5 days post-conception. Skin was minced, washed with Hank's Balanced Salt Solution (HBSS), and incubated in 35 mm dishes in shallow medium (˜0.5 mL) to avoid floating of the tissue for 4 days, during which fibroblasts extruded from the tissue. After 4 days, remaining tissue was removed (picked out with a pipette), and extruded cells in the dish were detached using TrypLE (Gibco, Gaithersburg, Md.) and expanded in culture for another 2 days before being seeded into stretch chambers for experiments. The inner well of assembled stretch chambers was ozone activated for 30 s via corona arc discharge (BD-20; Electro-Technic Products) and coated with 50 μg/mL bovine plasma fibronectin (F1141; Sigma-Aldrich) in a total volume of 250 μL overnight at 37° C. Mouse embryonic skin fibroblasts (MSFs) were seeded into stretch chambers at a density of 80,000 cells/cm′ 1 day before experiments. MSFs were extruded and cultured in DMEM (ATCC, Manassas, Va.) containing 10% fetal bovine serum (Gibco), 1% penicillin-streptomycin (Gibco), and 25 mM HEPES (Gibco) at 37° C. and 5% CO2. To inhibit calcium signaling, MSFs were incubated with 50 μM BAPTA (A4926; Sigma-Aldrich) or 10 μM KN-62 (12142; Sigma-Aldrich) 1 h before cyclic strain experiments. To disrupt actin polymerization, MSFs were incubated with 2 μM cytochalasin D (C8273; Sigma-Aldrich) 30 min before experiments. Vehicle controls were incubated with 0.001% DMSO (276855; Sigma-Aldrich) 1 h before experiments. To test the use of chromatin dyes, cells were stained with Hoechst (NucBlue Live ReadyProbes; Life Technologies) 30 min before experiments. Stretch experiments were performed at 25° C. (room temperature) under humidified conditions.
The stretch device was mounted on an inverted epi-fluorescence microscope (Ti-Eclipse; Nikon) with a 60× water immersion objective (0.26 μm/pixel) and an EMCCD camera (iXonEM+; Andor Technology). The surrounding of the microscope was humidified to prevent the water on the objective from evaporating during the 1 h experiment. Oil immersion is also possible, but water immersion provided better image quality with the silicone membranes used.
Using MATLAB, a sinusoidal control signal (1 Hz) was sent to the Arduino controller, resulting in a cyclic stretch routine of the membrane (FIG. 1C), with peak strains set to 5% (−0.1 V), 10% (−0.9 V), and 20% (−2.25 V) as determined by the calibration curve. Cells were cyclically stretched for 30 min, followed by 30 min of rest, during which 2 μm z-stacks (0.5 μm steps) of nuclei were acquired. During the rest period, cells experienced no stretch but a constant magnetic field using the offset Arduino input voltage (0.8 V) that keeps the piston suspended at 0% stretch. For acquisition, the cyclic stretch routine was paused for 1 min to allow for a steady imaging plane and fine readjustments in z-position due to water evaporation. Unstretched control cells (0%) were seeded into stretch chambers but kept stationary on the microscope without any magnetic field applied. Unstretched magnetic control cells (MAG) were placed stationary inside the coil without the piston, and a magnetic field corresponding to a 20% sinusoidal stretch routine was applied.
A custom MATLAB code was used to track nuclear outlines via H2b-eGFP and to generate H2b intensity histograms during an image series, from which changes in nuclear area, H2b skewness, and H2b kurtosis were calculated.

[2] = tested on: mouse embryonic skin fibroblasts (MSFs); assay: Perinuclear F-actin and γH2a.x staining after cyclic stretch routines; type: cell-based; details: BAPTA 50 μM, KN-62 10 μM, cytochalasin D 2 μM
Method: as §1
MSFs were fixed in 4% ice-cold paraformaldehyde (PFA) for 10 min, permeabilized with 1% Triton-X100 in phosphate-buffered saline for 15, min and blocked with 10% NGS, 1% bovine serum albumin in 0.1% PBT (0.1% Tween-20 in phosphate-buffered saline) for 60 min. Primary incubation of Phospho-Histone H2A.X Ser139 (9718S; Cell Signaling Technology, Danvers, Mass.) was performed at 4° C. overnight in 0.1% PBT containing 1% bovine serum albumin at 1:400. Secondary incubation of goat anti-rabbit IgG-AF546 (Life Technologies) was performed in primary incubation buffer for 45 min at 22° C. at a dilution of 1:500. F-actin was counterstained with phalloidin-CF405 (Biotium, Fremont, Calif.) for 30 min at a dilution of 1:30. Staining was performed in containment wells. After staining, membranes were cut out of the containment well using a circular punch and mounted cell-side up onto #1.0 glass slides with ProLong Diamond Antifade Mountant (Life Technologies). Image stacks (5 μm, 1 μm step) of multiple nuclei in a 318×318 μm area were acquired on a Nikon MR confocal microscope using a 40× oil immersion objective (0.31 μm/pixel). A custom MATLAB code was used to track nuclear outlines via H2b-eGFP and to quantify perinuclear F-actin intensities and γH2a.x foci in projected image stacks. Only the projected F-actin within the nuclear outline (apical perinuclear F-actin) was counted in this analysis. To account for variations in staining and imaging (the same imaging settings were used), fluorescence channels were histogram normalized. Perinuclear F-actin intensities were calculated as the sum of normalized phalloidin intensities within a nuclear border. DNA damage foci were determined by detecting 2D peaks in the normalized γH2a.x channel using the MATLAB script FastPeakFind (v. 1.7).

[3] = 30 min 5% cyclic strain, 1 Hz, vs NT/VH cells (area increases)
[4] = 30 min 5% cyclic strain, 1 Hz, vs NT/VH cells (condensation decreases)
[5] = 30 min 20% cyclic strain, 1 Hz, vs NT/VH cells (area decreases)
[6] = 30 min 20% cyclic strain, 1 Hz, vs NT/VH cells (condensation increases)
[7] = static magnetic-field-only routine (MAG), no stretch
[8] = after 30 min 5% cyclic stretch, vs NT or VH control cells
[9] = after 30 min 20% cyclic stretch, vs NT or VH control cells
[10] = 20% cyclic strain 30 min, Hoechst-stained vs unstained (H2b) nuclei

SMILES | change in nuclear area [1, 3] | chromatin condensation (H2b histogram kurtosis and skewness) [1, 4] | change in nuclear area [1, 5] | change in nuclear area ([1]; 30 min 20% cyclic strain, 1 Hz, vs NT/VH cells (area decreases), listed as BP) | chromatin condensation (H2b histogram kurtosis and skewness) [1, 6] | chromatin condensation (H2b histogram kurtosis and skewness) ([1]; 30 min 20% cyclic strain, 1 Hz, vs NT/VH cells (condensation increases), listed as BP) | change in nuclear area [1, 7] | chromatin condensation (H2b histogram kurtosis and skewness) [1, 7] | number of γH2a.x foci per nucleus (DNA damage, double-strand breaks) [2, 8] | perinuclear F-actin intensities ([2]; after 30 min 5% cyclic stretch, vs NT or VH control cells, listed as BP) | number of γH2a.x foci per nucleus (DNA damage, double-strand breaks) [2, 9] | number of γH2a.x foci per nucleus (DNA damage, double-strand breaks) ([2]; static magnetic-field-only controls (MAG), listed as BP) | change in nuclear area during stretch [1, 10] | chromatin condensation (histogram kurtosis and skewness) during stretch [1, 10] | change in nuclear area during rest ([1]; 30 min rest after 20% cyclic strain, Hoechst-stained vs unstained (H2b) nuclei) | change in nuclear area ([1]; 30 min 20% cyclic strain, 1 Hz, vs NT/VH cells (area decreases), listed as KN) | chromatin condensation (H2b histogram kurtosis and skewness) ([1]; 30 min 20% cyclic strain, 1 Hz, vs NT/VH cells (condensation increases), listed as KN) | perinuclear F-actin intensities ([2]; after 30 min 5% cyclic stretch, vs NT or VH control cells, listed as KN) | number of γH2a.x foci per nucleus (DNA damage, double-strand breaks) ([2]; static magnetic-field-only controls (MAG), listed as KN)
O=C(O)CN(CC(=O)O)c1ccccc1OCCOc1ccccc1N(CC(=O)O)CC(=O)O [BAPTA] | abrogated the increase in nuclear area | abrogated the increase in nuclear area and decrease in chromatin condensation | only minorly effected | had no effect | only minorly effected | had no effect | interfered with the slight decrease in nuclear area | interfered with the slight decrease in nuclear area and increase in chromatin condensation | showed no difference | abrogated increases; also recorded: abrogated the increase | showed no difference | increased DNA damage | – | – | – | – | – | – | –
CCOc1ccc(-c2nc3ccc(-c4nc5ccc(N6CCN(C)CC6)cc5[nH]4)cc3[nH]2)cc1 [Hoechst, Hoechst 33342] | – | – | – | – | – | – | – | – | – | – | – | – | reduction in nuclear area similar to unstained nuclei | reduced chromatin condensation; also recorded: Reduced chromatin compaction | no regain in nuclear areas; also recorded: no recovery; also recorded: no relaxation | – | – | – | –
CN([C@@H](Cc1ccc(OS(=O)(=O)c2cccc3cnccc23)cc1)C(=O)N1CCN(c2ccccc2)CC1)S(=O)(=O)c1cccc2cnccc12 [KN-62] | abrogated the increase in nuclear area | abrogated the increase in nuclear area and decrease in chromatin condensation | only minorly effected | – | only minorly effected | – | interfered with the slight decrease in nuclear area | interfered with the slight decrease in nuclear area and increase in chromatin condensation | showed no difference | – | showed no difference | – | – | – | – | had no effect | had no effect | abrogated increases; also recorded: abrogated the increase | increased DNA damage
